Experimental data: patent US20110173718A1, “HERBICIDE TOLERANT PLANTS” (SYNGENTA CROP PROTECTION, INC., priority 2008, published 2011)

What was measured:
Chlamydomonas HST = target: T1, Chlamydomonas HST (Chlamydomonas reinhardtii, UniProt A1JHN0); assay: HST assay (TLC, MFBQ formed), recombinant Chlamydomonas HST in E. coli membranes; type: biochemical; settings: 25 ppm, TLC, estimated amount of MFBQ formed, relative to controls; for inhibition at 25 ppm: read-out: Chlamydomonas. HST % I at 25 ppm
T1 construct: GST (N); made in house; host or cells: E. coli (BL21A1 / BL21DE3), membrane fraction
T1 sequence (A1JHN0 51-370): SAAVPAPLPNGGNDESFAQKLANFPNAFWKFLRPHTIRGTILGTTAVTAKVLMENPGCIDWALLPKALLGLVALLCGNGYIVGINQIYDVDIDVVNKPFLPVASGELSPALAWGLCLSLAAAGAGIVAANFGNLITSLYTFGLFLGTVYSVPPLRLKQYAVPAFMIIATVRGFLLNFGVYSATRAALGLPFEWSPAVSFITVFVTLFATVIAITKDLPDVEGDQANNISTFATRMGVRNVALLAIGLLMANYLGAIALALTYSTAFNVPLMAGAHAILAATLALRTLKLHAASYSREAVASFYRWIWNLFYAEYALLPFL
Experimental: Alternatively, Arabidopsis and Chlamydomonas mature HST coding sequences are cloned as GST N-terminal fusion enzymes and expressed in E. coli.
E. coli. BL21A1 cells expressing mature Arabidopsis or Chlamydonionas HST as a GST N-terminal fusion proteins are grown, harvested, broken and membrane fractions expressing HST produced.
For example, 1 ng of recombinant DNA is used to transform BL21DE3 cells to obtain a plateful of individual colonies. One of these colonies is picked and used to inoculate an overnight culture of 100 ml of Luria Broth (LB) supplemented with 50 ug/ml of kanamycin at final concentration, grown at 37° C. with shaking at 220 rpm. Next morning, 10 mls of the overnight culture is used to inoculate 11 of fresh sterile LB supplemented with 50 ug/ml of kanamycin at final concentration, grown at 37° C. with shaking at 220 rpm until the OD reached 0.6 at 600 nm, induced with the addition of 0.1 mM IPTG and left to induce at 15° C. overnight. The cells are harvested by centrifugation at 4600 rpm for 10 min at 4° C. and the pellet stored at −80° C. […] E. coli cell pellet is then resuspended in 25 ml of 50 mM Tris, pH 7.5 supplemented with Roche EDTA-free protease inhibitor tablet (one tablet in 200 mls of buffer). 10 ml of cells are lysed by sonication on ice. The resultant lysed cells are centrifuged at 3000 g for 10 min to pellet the cell nuclei/debris etc. 10 mls of supernatant is aspirated and centrifuged at 150,000 g for 60 min at 4° C. The pellet containing the membranes is resuspended in 2 ml of the above buffer. These samples are stored as 100 ul aliquots at −80° C., after being diluted with addition of glycerol to 50% v/v.
(§1) Prenyltransferase (HST) activities are measured by determining the prenylation rates of [U—^14C]homogentisate using farnesyl diphosphate (FDP) as prenyl donor. ^14C homogentisate is prepared from ^14C tyrosine using L amino acid oxidase and HPPD. For inhibitor testing, compounds are dissolved in dimethylsulfoxide (DMSO). DMSO added at up to 2% v/v has no effect on assays. Control assays contain DMSO at the same concentration as in inhibitor containing assays.
The recombinant Chlamydomonas HST expressed in E. coli membranes is assayed in standard reaction mixtures with 200 μM FDP and 100 μM ^14C-homogentisate (40 dpm/pmol) in 50 mM Tricine-NaOH pH 8.5, 20 mM MgCl2. Assays are started with the addition of enzyme and run for ˜20 min at 28° C.
Recombinant Arabidopsis and Rice HSTs are expressed in insect cells. Assays are run as for Chlamydomonas HST except that assay temperature is 27° C. Assays are stopped with 300 ul of solvent mix (1:2, Chloroform:Methanol) and 100 ul of 0.5% NaCl, agitated/mixed and spun at 13,000 rpm in a benchtop eppendorf centrifuge for 5 minutes. 80 ul of the lower phase extract is loaded onto a TLC plate (silica Gel 60, 20 cm×20 cm) FLA3000 system and run for 35 minutes in dichloromethane. The radioactivity is quantified using a Fuji Phosphoimager and band intensity integrated as quantitative measure of product amount. The bands corresponding to oxidised and reduced 2-methyl-6-farnesyl-1,4-benzoquinol (MFBQ) are identified and the total of the two (oxidised and reduced) band intensities is calculated in order to estimate the total amount of MFBQ product formation. Specific activities of 8 pmol MFBQ min^−1 mg^−1 protein (23 pmol) and 7 pmol MFBQ min^−1 mg^−1 protein (14 pmol) are, for example, estimated for the GST-fusion truncated Arabidopsis HST gene (SEQ ID # 3) expressed in membranes from insect cells 4 days and 5 days after transfection respectively. Similar results are noted from past literature on E. coli expressed Arabidopsis HST. Activity from the insect cell expressed GST-fusion truncated rice HST (SEQ ID# 4) is similar. Expression of the non-truncated HST coding sequences as GST fusions also gives HST activity. […]

[1] = system: HST in spinach chloroplast extract; assay: HST assay (TLC, MFBQ formed), spinach chloroplast extract; type: biochemical; settings: 25 ppm; TLC, estimated amount of MFBQ formed, relative to controls
Experimental: HST enzyme preparations for assay are also prepared directly from fresh plant material. For example HST enzyme preparations are from spinach. In the first step intact spinach chloroplasts are prepared from two lots of 500 g of fresh baby spinach leaves (e.g from the salad section of the local supermarket). Prepacked spinach is usually already washed, but if buying loose leaves these must be rinsed in water before proceeding. Stalks, large leaves and mid-ribs are removed. Each 500 g lot of leaves is added to 1.5 l of ‘Grinding medium’ in a 2 L plastic beaker. Grinding medium is cold (4° C.) 50 mM Tricine/NaOH buffer at pH 7.1 containing 330 mM glucose, 2 mM sodium isoascorbate, 5 mM MgCl2 and 0.1% bovine serum albumen The beaker, kept at 4° C., is placed under a Polytron 6000 blender, fitted with a 1.5″cutting probe and the mixture blended in short bursts of 5-8 sec up to 8-10K rpm until all the leaves are macerated. The homogenate is filtered into a 5 L beaker (embedded in an ice bucket) through four layers of muslin, and two layers of 50μ mesh nylon cloth. The filtrate is transferred to 250 ml buckets of a Beckman GS-6 centrifuge and spun at […] (3020 rpm) for 2 min at 4° C. The supernatant is drained away and discarded to leave a sediment of chloroplasts. Chloroplasts are resuspended in a few ml of cold resuspension medium by gentle swirling and gentle use of a quill brush soaked in resuspension medium. Resuspension medium is 50 mM Hepes/KOH pH 7.8 containing 330 mM sorbitol, 2 mM EDTA, 5 mM KH2PO4, 2 mM MgCl2 and 0.1% bovine serum albumen at 4° C. The chloroplasts are resuspended in 5-10 ml of resuspension buffer, recentrifuged down and resuspended again in order to wash them. The chloroplasts are then once again centrifuged down and then broken by resuspension in about 5 ml of 50 mM Tricine-NaOH pH 7.8 to a protein concentration of about 40 mg/ml. The solution is stored frozen at −80° C. in aliquots. This resuspension is defrosted and used directly in HST activity assays. Alternatively, chloroplasts are prepared resuspended in 50 mM Tris/HCl buffer at pH 7.8 containing 330 mM sorbitol (alternative resuspension buffer) and layered on top of a percol gradient (comprising the same buffer containing 45% percol), spun down, the intact chloroplast fraction taken and washed 2 or 3 times in the alternative resuspension buffer and then spun down again, resuspended in breaking buffer (without sorbitol), flash frozen and stored in aliquots at −80° C.
as §1
Assays using spinach chloroplast extracts (100 μl final volume) contain up to 2 mg of chloroplast protein, 50 mM Tricine-NaOH pH 8.5, 50 mM MgCl2, 200 μM farnesyl diphosphate (FDP) and 26 μM ^14C-homogentisate (167 dpm/pmol). Assays are run for about an hour at 28° C. […] Lipophilic reactions products are extracted and analyzed essentially as described in the literature.
Using the above assays percentage inhibition of the amount of MFBQ formed at a range of doses of inhibitors relative to the control amount obtained with no inhibitor present is reported (Table 1). The better inhibitors give greater percentage inhibition at lower doses.

Question: How did the inhibition at 25 ppm (Chlamydomonas HST) turn out when `Oc1c(Br)c(F)nc(F)c1Br` [Compound 1.4] was run?
Answer: Its inhibition at 25 ppm is 65%.

Question: And the “Spinach chloroplast extract % I at 25 ppm” value [1]?
Answer: The value was 75%.

Question: `COc1nc(C)nc(NC(=O)NS(=O)(=O)c2ccccc2Cl)n1` [Chlorsulfuron, reference compound] was tested. Which inhibition at 25 ppm (Chlamydomonas HST) did it give?
Answer: The inhibition at 25 ppm was 0%.

Question: And the “Spinach chloroplast extract % I at 25 ppm” value [1]?
Answer: The value was 0%.

Question: `Oc1c(Cl)c(Cl)nc(Cl)c1Cl` [Compound 1.2] was tested. Which inhibition at 25 ppm (Chlamydomonas HST) did it give?
Answer: Its inhibition at 25 ppm is 70%.

Question: And the “Spinach chloroplast extract % I at 25 ppm” value [1]?
Answer: The value was 80%.

Question: How did the “Chlamydomonas. HST % I at 25 ppm” value (Chlamydomonas HST) turn out when `O=S1(=O)C(c2c(Cl)cccc2C(F)(F)F)=C(O)c2nccnc2N1CC(F)F` [Compound 3.3] was run?
Answer: Its value is 20%.

Question: What about the “Spinach chloroplast extract % I at 25 ppm” value [1] of the same compound?
Answer: Its value is 35%.

Question: `CCc1cc(CC)c(-c2c(O)c3nccnc3[nH]c2=O)c(CC)c1` [Compound 2.10] was tested. Which “Chlamydomonas. HST % I at 25 ppm” value (Chlamydomonas HST) did it give?
Answer: The value was 50%.

Question: What about the “Spinach chloroplast extract % I at 25 ppm” value [1] of the same compound?
Answer: The value was 0%.

Question: `O=S1(=O)C(c2c(Cl)ccc(Cl)c2Cl)=C(O)c2nccnc2N1CC(F)F` [Compound 3.4] was tested. Which “Chlamydomonas. HST % I at 25 ppm” value (Chlamydomonas HST) did it give?
Answer: Its value is 50%.

Question: What about the “Spinach chloroplast extract % I at 25 ppm” value [1] of the same compound?
Answer: The value was 40%.

Question: Which results are given for `Oc1c(F)c(F)nc(F)c1Br` [Compound 1.3]?
Answer: inhibition at 25 ppm (Chlamydomonas HST): 55%; Spinach chloroplast extract % I at 25 ppm [1]: 65%

Question: With `CN1c2nccnc2C(O)=C(c2ccc(Cl)cc2Cl)S1(=O)=O` [Compound 3.2] as the compound, how does the “Chlamydomonas. HST % I at 25 ppm” value (Chlamydomonas HST) read?
Answer: Its value is 0%.

Question: What about the “Spinach chloroplast extract % I at 25 ppm” value [1] of the same compound?
Answer: The value was 15%.

Question: `O=c1c(-c2c(Cl)cncc2Cl)c(O)c2nccnc2n1CC(F)F` [Compound 5.1] was tested. Which “Chlamydomonas. HST % I at 25 ppm” value (Chlamydomonas HST) did it give?
Answer: Its value is 20%.

Question: And the “Spinach chloroplast extract % I at 25 ppm” value [1]?
Answer: Its value is 10%.

Question: What does the source list for `CCN1c2nccnc2C(O)=C(c2c(Cl)cccc2C(F)(F)F)S1(=O)=O` [Compound 3.1]?
Answer: Chlamydomonas. HST % I at 25 ppm (Chlamydomonas HST): 20%; Spinach chloroplast extract % I at 25 ppm [1]: 20%

Question: How did the “Chlamydomonas. HST % I at 25 ppm” value (Chlamydomonas HST) turn out when `O=c1[nH]c2nccnc2c(O)c1-c1ccccc1OC(F)(F)F` [Compound 2.12] was run?
Answer: Its value is 0%.

Question: And the “Spinach chloroplast extract % I at 25 ppm” value [1]?
Answer: The value was 0%.
